Consider two molecules from PMC12715756 (ACS Chemical Neuroscience, 2025).

The target of data set [1] is T1, DAT (Homo sapiens, UniProt Q01959). In words: cell-based. The settings on record: read-out: Emax [95%-CI], DAT mediated [3H]MPP+ release.
For data set [2], the target named is T2, SERT (Homo sapiens, UniProt P31645). The experiment in a line: Release (superfusion) assay, SERT mediated [3H]5-HT efflux. The settings on record: for Emax: read-out: Emax [95%-CI], SERT mediated [3H]5-HT efflux.
The next data set deals with male C57BL/6J mice. The experiment in a line: Head-twitch response (HTR). It is filed as in vivo. To be noted: IP, 30 min, doses based on the salt form. The method, then:
(§1) Male Swiss CD-1 mice (Janvier, Le Genest, France), weighing 30–35 g and aged 6–8 weeks, were used for HLA, thigmotaxis, CPP, and core body temperature experiments. Animals were housed under temperature-controlled conditions (22 ± 1 °C) with a 12 h light/dark cycle and had free access to food and water (standard laboratory diet, Panlab SL, Barcelona, Spain). Doses for HLA, thigmotaxis, CPP, and core body temperature experiments were calculated based on the free base form of each compound. For HTR experiments, male C57BL/6J mice (6–8 weeks old) were obtained from Jackson Laboratories (Bar Harbor, ME, USA) and housed up to four per cage with a reversed light-cycle (lights on at 1900 h, off at 0700 h). Food and water were provided ad libitum, except during behavioral testing. Testing was conducted between 1000 and 1830 h. Doses for HTR experiments were calculated based on the respective salt forms of the compounds.
The HTR was assessed using a head-mounted magnet and a magnetometer detection coil. Mice were anesthetized, a small incision was made in the scalp, and a small neodymium magnet was attached to the dorsal surface of the cranium by using dental cement. Following a two week recovery period, HTR experiments were carried out in a well-lit room with at least 7 days between sessions to avoid carryover effects. Mice (N = 4–7/group) received intraperitoneal (IP) injections of vehicle (saline) or test drug (5 mL/kg injection volume), and then activity was recorded in a glass cylinder surrounded by a magnetometer coil for 30 min. Doses for HTR experiments were calculated based on the respective salt forms of the compounds. Coil voltage was low-pass filtered (1 kHz cutoff frequency), amplified, digitized (20 kHz sampling rate, 16-bit ADC resolution), and saved to disk using a Powerlab 8/35 data acquisition system with LabChart software (ver. 8.1 ADInstruments, Colorado Springs, CO, USA). To detect head twitches, events in the recordings were transformed to scalograms, deep features were extracted using the deep convolutional neural network ResNet-50, and then the images were classified using a support vector machine (SVM). Head twitch counts were analyzed using one-way ANOVA. Posthoc comparisons were made using Dunnett’s test.

Data set [3] addresses T3, NET (Homo sapiens, UniProt P23975). In words: Uptake inhibition assay, [3H]MPP+ uptake in HEK293 cells. It is filed as cell-based. Also on record: expressed in transfected cells.
Another data set concerns the target T4, OCT2 (Homo sapiens, UniProt O15244).
T4 sequence (O15244 1-555): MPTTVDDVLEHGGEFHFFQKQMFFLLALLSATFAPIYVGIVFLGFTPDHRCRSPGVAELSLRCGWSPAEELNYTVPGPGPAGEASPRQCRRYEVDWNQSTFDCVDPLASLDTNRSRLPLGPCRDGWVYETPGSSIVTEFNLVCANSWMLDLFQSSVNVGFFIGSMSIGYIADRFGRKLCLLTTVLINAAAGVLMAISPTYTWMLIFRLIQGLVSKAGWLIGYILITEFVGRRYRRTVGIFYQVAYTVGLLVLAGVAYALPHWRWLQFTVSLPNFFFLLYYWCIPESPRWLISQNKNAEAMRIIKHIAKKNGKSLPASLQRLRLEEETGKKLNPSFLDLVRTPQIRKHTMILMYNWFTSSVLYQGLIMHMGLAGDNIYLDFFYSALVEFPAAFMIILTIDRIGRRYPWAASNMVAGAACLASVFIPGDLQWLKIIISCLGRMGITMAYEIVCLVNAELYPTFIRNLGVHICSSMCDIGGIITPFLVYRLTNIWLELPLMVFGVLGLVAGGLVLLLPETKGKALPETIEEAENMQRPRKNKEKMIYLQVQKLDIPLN
The data set is described as above.

For data set [4], the target named is T3, NET. In words: Release (superfusion) assay, NET mediated [3H]MPP+ release. To be noted: for Emax: read-out: Emax [95%-CI], NET mediated [3H]MPP+ release.
Data set [5] concerns the target T5, human organic cation transporter 1 (OCT1) (Homo sapiens, UniProt O15245).
T5 sequence (O15245 1-554): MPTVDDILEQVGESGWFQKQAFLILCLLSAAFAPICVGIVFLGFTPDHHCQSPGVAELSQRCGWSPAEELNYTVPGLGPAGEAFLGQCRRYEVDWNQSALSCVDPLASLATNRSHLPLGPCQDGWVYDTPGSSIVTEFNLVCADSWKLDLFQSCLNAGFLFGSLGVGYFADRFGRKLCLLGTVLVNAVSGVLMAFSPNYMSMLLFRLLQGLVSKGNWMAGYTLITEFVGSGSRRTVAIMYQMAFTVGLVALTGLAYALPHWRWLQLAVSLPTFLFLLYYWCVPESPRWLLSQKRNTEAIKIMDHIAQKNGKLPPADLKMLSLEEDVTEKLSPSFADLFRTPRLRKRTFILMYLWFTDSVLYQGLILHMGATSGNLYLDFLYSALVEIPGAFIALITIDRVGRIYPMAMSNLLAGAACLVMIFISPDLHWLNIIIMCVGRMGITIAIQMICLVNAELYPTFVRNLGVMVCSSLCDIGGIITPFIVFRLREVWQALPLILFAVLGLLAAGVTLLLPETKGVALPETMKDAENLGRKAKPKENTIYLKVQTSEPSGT
In words: Uptake inhibition assay, [3H]MPP+ uptake in HEK293 cells.

Data set [6] deals with T2, SERT. The experiment in a line: Uptake inhibition assay, [3H]5-HT uptake in HEK293 cells. It is filed as cell-based. Also on record: expressed in transfected cells.
Data set [7] deals with DAT. The settings on record: incubation at IC50 concentration for 60 min.
Data set [8] concerns the target T1, DAT.
Another data set deals with T6, 5-HT2B (Homo sapiens, UniProt P41595).
T6 construct: expressed in transfected cells; host or cells: HEK293T (ATCC; RRID:CVCL_0063), transient transfection
The experiment in a line: Gq dissociation BRET assay in HEK293T cells. The settings on record: for EC50: Gq dissociation BRET; for Emax: HEK-293T, read-out: Emax ± SEM, %5-HT response 5-HT2B. It is filed as cell-based.

The target of a further data set is T7, 5-HT2A (Homo sapiens, UniProt P28223).
T7 construct: expressed in transfected cells; host or cells: HEK293T (ATCC; RRID:CVCL_0063), transient transfection
In words: Gq dissociation BRET assay in HEK293T cells. To be noted: for EC50 / Emax ± SEM, %5-HT response 5-HT2A: Gq dissociation BRET; for Emax ± SEM, %5-HT response 5-HT2A: relative to 5-HT; for Emax: HEK-293T, read-out: Emax ± SEM, %5-HT response 5-HT2A, Gq dissociation BRET, relative to 5-HT. It is filed as cell-based.

A short description of data set [9]: Metabolic stability, substrate depletion in pooled human liver microsomes. The settings on record: human, pooled human liver microsomes.
The subject of the next data set is male Swiss CD-1 mice. The experiment in a line: Conditioned place preference (CPP). It is filed as in vivo. The settings on record: 10 mg/kg i.p., compared to saline. How it is done: as §1
For this experiment, an apparatus with two distinct compartments, differing in tactile and visual cues, connected by a central corridor, was used. The conditioned place preference (CPP) procedure consisted of three phases: preconditioning, conditioning, and postconditioning. In the preconditioning phase (day 0), mice were placed in the middle of the corridor and allowed to freely explore both compartments for 15 min. The time spent in each compartment was recorded and monitored using specific tracking software (Smart 3.0 Panlab, Barcelona, Spain). In the conditioning phase (day 1–day 8), access to the corridor was closed. […] On alternate days, , mice received a saline i.p. injection and were placed in the other compartment for 30 min. Mice in the control group received a saline injection in every session. The compartments and sessions in which the drug was administered were randomized. In the postconditioning phase (test day), the same conditions as the preconditioning phase were reinstated. A preference score was determined by calculating the difference in time spent in the drug-paired compartment between the post- and preconditioning phases.

For data set [10] the following is noted: pHLM; literature data ref 9 (Alberto-Silva et al., 2024); cited from earlier work.
Data set [11] deals with NGF-differentiated PC12 cells. In words: Cytotoxicity, WST-8 assay. To be noted: 24 hours.

T6 sequence (P41595 whole entry): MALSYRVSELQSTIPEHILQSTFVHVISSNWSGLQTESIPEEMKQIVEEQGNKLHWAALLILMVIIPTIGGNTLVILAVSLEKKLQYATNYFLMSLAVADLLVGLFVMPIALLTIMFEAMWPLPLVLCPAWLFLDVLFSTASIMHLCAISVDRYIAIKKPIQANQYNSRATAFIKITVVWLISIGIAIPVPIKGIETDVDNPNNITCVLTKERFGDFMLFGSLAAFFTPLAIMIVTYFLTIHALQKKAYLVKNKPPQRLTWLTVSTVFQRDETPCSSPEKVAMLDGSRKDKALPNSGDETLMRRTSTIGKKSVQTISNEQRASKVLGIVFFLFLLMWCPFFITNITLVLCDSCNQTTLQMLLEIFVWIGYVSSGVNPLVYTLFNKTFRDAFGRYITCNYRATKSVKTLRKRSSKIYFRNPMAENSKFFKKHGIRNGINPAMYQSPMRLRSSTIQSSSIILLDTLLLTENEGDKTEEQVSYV
T2 sequence (P31645 whole entry, the tested form may be a part): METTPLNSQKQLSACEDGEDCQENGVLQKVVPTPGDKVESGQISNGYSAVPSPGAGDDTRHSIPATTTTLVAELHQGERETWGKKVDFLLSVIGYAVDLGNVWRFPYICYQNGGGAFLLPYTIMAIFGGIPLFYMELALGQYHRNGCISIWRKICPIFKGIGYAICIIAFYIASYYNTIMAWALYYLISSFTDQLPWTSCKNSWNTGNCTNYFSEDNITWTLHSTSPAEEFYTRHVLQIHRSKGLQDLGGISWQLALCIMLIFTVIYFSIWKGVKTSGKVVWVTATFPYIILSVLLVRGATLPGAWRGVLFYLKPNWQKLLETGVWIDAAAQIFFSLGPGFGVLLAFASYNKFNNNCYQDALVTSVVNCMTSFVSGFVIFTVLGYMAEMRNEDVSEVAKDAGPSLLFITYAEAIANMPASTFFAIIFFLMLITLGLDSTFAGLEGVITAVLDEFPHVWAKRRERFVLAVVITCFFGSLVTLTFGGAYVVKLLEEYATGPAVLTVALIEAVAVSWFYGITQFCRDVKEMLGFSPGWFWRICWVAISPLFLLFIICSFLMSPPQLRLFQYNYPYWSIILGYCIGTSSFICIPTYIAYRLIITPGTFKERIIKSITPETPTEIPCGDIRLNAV
T7 sequence (P28223 whole entry): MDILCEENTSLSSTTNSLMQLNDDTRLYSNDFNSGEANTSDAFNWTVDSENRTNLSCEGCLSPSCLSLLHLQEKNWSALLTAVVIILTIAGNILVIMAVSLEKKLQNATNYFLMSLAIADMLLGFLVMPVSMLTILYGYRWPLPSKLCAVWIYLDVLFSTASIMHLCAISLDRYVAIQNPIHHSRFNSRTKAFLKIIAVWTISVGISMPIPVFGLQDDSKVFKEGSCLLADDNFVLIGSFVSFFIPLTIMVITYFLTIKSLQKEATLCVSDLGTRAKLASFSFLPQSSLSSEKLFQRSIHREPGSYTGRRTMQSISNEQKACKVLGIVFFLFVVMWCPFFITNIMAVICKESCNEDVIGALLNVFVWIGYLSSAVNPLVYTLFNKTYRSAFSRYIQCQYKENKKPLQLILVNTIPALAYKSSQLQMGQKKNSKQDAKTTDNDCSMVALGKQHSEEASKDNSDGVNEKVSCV
T1 sequence (Q01959 whole entry, the tested form may be a part): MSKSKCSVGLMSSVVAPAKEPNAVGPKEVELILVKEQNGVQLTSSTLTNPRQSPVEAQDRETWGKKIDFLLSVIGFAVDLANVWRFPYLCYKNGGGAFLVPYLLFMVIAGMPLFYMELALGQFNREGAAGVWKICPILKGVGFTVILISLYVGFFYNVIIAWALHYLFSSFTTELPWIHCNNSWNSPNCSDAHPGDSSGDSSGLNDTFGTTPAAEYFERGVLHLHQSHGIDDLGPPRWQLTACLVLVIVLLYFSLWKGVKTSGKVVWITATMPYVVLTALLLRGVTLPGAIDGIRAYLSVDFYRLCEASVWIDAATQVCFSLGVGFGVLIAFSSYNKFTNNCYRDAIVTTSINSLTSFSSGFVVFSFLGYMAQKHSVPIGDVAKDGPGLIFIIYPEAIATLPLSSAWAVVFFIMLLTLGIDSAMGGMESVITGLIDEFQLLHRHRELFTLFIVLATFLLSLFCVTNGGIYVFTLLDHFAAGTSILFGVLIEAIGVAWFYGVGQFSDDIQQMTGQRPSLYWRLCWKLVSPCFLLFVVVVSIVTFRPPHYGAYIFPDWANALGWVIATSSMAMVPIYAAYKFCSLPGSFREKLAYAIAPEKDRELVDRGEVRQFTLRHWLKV
T3 sequence (P23975 whole entry): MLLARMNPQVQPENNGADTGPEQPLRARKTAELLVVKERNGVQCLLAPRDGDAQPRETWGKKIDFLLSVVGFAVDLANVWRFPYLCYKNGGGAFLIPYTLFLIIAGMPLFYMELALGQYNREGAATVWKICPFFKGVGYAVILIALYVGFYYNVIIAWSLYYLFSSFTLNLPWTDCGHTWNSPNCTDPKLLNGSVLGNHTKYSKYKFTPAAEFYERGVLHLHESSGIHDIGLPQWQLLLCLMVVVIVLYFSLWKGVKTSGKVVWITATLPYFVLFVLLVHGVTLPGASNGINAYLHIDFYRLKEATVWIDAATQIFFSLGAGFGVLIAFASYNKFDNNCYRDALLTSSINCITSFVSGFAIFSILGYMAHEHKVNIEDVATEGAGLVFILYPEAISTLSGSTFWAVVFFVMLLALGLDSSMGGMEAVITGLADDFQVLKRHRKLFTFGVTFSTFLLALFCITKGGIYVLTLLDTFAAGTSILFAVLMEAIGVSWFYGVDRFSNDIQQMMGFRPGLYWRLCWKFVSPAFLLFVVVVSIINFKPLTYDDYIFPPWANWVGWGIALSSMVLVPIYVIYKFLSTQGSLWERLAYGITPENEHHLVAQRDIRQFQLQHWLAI

On to `CC(N)Cc1ccc2c(c1)OCO2` (stereo not shown) [MDA, 3,4-Methylenedioxyamphetamine, reference compound], for which the maximum response (Emax) was 67.2% on DAT [1]; 45.5% on SERT [2]; 126% at NET [4]; 104 ± 4.9% at 5-HT2B; > 70% at 5-HT2A. Also, the EC50 on SERT [2] is 4.35 µM; at NET [4] it was 350 nM; at 5-HT2B (EC50 5-HT2B), 139 nM; at 5-HT2A (EC50 5-HT2A), 0.905 µM. Further, the “type of releaser at SERT” value at SERT [2] is “partial releasers”. In the data set on male C57BL/6J mice, the HTR counts entry was “dose-related increase in HTR counts peaking at 3 mg/kg”. Further, the IC50 came out at 3.33 ± 0.47 µM against NET [3], 5.13 ± 1.18 µM against OCT2, 6.93 ± 2.63 µM in data set [5] and 22.9 ± 2.27 µM on SERT [6]. For the same molecule, the “type of releaser at NET” value at NET [4] is on record as “full releasers”. Besides, the “transporter expression on plasma membrane level” value in the data set with DAT [7] is given as “expression levels slightly increased”. The “type of releaser at DAT” value on DAT [8] was “partial releasers”. Besides, at 5-HT2A, the “Emax ± SEM, %5-HT response 5-HT2A” value is reported as 87.8 ± 2.4%. The half-life at 0.5 μM in [9] was > 150 min.

With `CNC(C)Cc1ccc2c(c1)OCO2` (stereo not shown) [MDMA, 3,4-Methylenedioxymethamphetamine, reference compound], the “rewarding effects (CPP preference score)” value with male Swiss CD-1 mice is “induce rewarding effects”. Also, in [10], the “in vitro half-life (t1/2)” value is on record as > 150 min. For the same molecule, the Emax at DAT [1] is 43.1%; at SERT [2] it was 39.3%; at NET [4], 111%; at 5-HT2B it was 59.9 ± 5.1%; at 5-HT2A, < 70%. Besides, the EC50 on SERT [2] was 1.95 µM; on NET [4], 730 nM; at 5-HT2B (EC50 5-HT2B), 531 nM; on 5-HT2B (pEC50 ± SEM 5-HT2B), 525 nM; at 5-HT2A (EC50 5-HT2A), 3.13 µM; on 5-HT2A (pEC50 ± SEM 5-HT2A), 3.09 µM. At SERT [2], the “type of releaser at SERT” value was “partial releasers”. Also, the HTR counts result in the data set on male C57BL/6J mice is reported as “Neither MDMA nor SDMA induced an appreciable increase in HTR counts”. Besides, the IC50 against NET [3] worked out at 3.17 ± 0.72 µM; against OCT2 it was 5.3 ± 0.25 µM; in [5], 5.09 ± 3.14 µM; against SERT [6], 6.47 ± 0.93 µM. Besides, at NET [4], the “type of releaser at NET” value is “full releasers”. Also, in data set [11], the “concentration at which cytotoxicity starts” value was 2 mM. For the same molecule, the “type of releaser at DAT” value at DAT [8] was “partial releasers”. Besides, at 5-HT2A, the “Emax ± SEM, %5-HT response 5-HT2A” value turned out to be 66.0 ± 2.3%.
